Source: patent US20170107203A1, “HETEROCYCLIC INHIBITORS OF THE SODIUM CHANNEL” (EPIRUS BIOPHARMACEUTICALS, INC., priority 2014, published 2017)

Target: T1, human Nav1.7 (Homo sapiens, UniProt Q15858)
T1 construct: expressed in transfected cells
Test: Assessment of Nav1.7 activity on PatchXpress (voltage dependence / slow inactivation parameters)
Type: cell-based
Conditions: compound at 10 μM, relative to 0.2% DMSO vehicle control; for hNav1.7: Reduction in current at 20 mV (normalized data) Delta Ratio: before/after 30 sec conditioning pulse at 20 mV; for hNav1.7: Shift in voltage dependence of inactivation (mV) Delta Vhalf: PatchXpress
Protocol: The generation of a HEK 293F cell line stably expressing human Nav1.7/Navp1 was achieved by co-transfecting human SCN9A and human SCN1B cDNAs, subcloned into plasmid vectors, utilizing standard transfection techniques. Clones were selected using appropriate selection agents (0.3 mg/mL Zeocin and 0.8 mg/mL Geneticin) and maintained in Dulbecco's Modified Eagle medium, 10% fetal bovine serum, 1% non-essential amino acids to ˜80% confluence at 37° C. in a humidified incubator with 95% atmosphere and 5% CO2.
On the day of each experiment, cells that were grown to 80% confluence in a T75 flask were harvested for use on PatchXpress (Molecular Devices, CA, USA). Following a recovery period at 37° C. in a humidified incubator with 95% atmosphere and 5% CO2 in Dulbecco's Modified Eagle Medium, the media was replaced with an external recording solution containing (in mM): 90 TEACI, 50 NaCl, 1.8 CaCl2, 1 MgCl2, 10 HEPES, 10 glucose, adjusted to pH 7.4 with TEAOH and 300 mOsm with sucrose. The internal recording solution contained (in mM): 129 CsF, 2 MgCl2, 11 EGTA, 10 HEPES, 6 NaCl, 3 Na2ATP adjusted to pH 7.2 with CsOH and 280 mOsm with sucrose. The automated liquid handling facility of PatchXpress dispensed cells and added compound. Modulation of Nav1.7 channels by compounds was assessed by promoting the channels into the inactivated state using a conditioning voltage pulse of variable amplitude, followed by a brief hyperpolarizing pulse with a subsequent depolarized voltage step to measure the current amplitude in the presence and absence of compound. Compounds were assayed at 10 μM. Based upon this Patch express protocol, four electrophysiological parameters were measured relative to a 0.2% DMSO vehicle control (Table 2).

T1 sequence (Q15858 whole entry): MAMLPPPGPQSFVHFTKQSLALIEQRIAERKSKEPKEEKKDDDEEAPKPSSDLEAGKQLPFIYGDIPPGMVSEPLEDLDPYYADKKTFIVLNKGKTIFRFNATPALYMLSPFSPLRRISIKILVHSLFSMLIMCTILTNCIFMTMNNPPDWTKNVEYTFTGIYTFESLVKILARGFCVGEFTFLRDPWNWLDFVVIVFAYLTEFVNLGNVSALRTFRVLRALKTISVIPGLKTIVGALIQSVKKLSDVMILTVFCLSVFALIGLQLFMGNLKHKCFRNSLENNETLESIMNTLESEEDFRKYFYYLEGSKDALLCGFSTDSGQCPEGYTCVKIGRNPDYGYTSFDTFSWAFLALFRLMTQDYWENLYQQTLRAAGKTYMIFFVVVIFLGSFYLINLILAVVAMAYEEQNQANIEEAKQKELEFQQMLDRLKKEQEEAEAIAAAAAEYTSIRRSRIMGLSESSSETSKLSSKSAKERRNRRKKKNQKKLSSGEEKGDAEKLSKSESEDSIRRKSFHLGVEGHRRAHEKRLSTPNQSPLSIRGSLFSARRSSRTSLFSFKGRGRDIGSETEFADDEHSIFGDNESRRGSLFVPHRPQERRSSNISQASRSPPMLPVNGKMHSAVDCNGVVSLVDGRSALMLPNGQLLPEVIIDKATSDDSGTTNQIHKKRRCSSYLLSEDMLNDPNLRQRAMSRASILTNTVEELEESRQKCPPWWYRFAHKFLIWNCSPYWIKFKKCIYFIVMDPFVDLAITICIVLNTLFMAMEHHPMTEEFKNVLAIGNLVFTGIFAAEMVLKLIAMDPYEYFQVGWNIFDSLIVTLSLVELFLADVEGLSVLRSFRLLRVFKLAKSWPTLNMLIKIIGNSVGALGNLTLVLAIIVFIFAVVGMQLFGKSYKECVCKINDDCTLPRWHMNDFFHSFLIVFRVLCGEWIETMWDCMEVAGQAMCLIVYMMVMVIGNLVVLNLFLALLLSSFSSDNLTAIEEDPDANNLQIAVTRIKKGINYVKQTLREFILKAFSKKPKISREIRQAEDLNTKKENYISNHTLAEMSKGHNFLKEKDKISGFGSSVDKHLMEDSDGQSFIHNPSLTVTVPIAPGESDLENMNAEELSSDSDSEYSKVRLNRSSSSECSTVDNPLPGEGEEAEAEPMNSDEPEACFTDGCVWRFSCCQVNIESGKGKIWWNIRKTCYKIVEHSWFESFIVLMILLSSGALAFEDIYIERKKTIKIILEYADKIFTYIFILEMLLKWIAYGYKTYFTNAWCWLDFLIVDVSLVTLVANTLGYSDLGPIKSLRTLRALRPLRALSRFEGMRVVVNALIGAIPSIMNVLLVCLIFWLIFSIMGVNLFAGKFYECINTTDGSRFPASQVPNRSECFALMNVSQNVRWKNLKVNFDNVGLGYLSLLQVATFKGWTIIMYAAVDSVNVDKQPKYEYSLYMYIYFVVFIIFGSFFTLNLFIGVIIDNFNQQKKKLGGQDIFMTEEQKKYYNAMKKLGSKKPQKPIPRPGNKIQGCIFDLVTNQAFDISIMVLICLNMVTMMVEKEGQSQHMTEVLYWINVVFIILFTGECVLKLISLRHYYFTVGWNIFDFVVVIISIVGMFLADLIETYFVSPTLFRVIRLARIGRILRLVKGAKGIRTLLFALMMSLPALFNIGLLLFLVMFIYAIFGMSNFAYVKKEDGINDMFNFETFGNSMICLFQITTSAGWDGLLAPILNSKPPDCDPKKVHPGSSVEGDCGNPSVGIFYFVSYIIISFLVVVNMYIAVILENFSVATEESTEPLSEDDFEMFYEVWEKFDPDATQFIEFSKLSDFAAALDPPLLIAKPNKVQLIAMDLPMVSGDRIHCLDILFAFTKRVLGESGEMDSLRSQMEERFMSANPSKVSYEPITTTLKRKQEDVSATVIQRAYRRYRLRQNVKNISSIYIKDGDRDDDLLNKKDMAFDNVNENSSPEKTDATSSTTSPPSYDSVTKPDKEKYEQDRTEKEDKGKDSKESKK
T1 sequence (Q07699 19-218 partner): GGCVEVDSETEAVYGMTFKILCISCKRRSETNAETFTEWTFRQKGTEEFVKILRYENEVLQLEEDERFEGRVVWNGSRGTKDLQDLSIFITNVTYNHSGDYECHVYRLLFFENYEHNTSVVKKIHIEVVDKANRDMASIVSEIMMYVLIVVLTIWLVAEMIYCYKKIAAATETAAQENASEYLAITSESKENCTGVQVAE

Structure (SMILES)	hNav1.7: Reduction in current at 20 mV (normalized data) Delta Ratio	hNav1.7: Voltage dependence of activation (mV) VDEP	hNav1.7: Voltage dependence of fast inactivation (mV) VDEP	hNav1.7: Shift in voltage dependence of inactivation (mV) Delta Vhalf
O=C(NCCOc1cc(C(F)(F)F)cc(C(F)(F)F)c1)C1CCCN1 (stereo not drawn) [Compound 14, N-(2-(3,5-bis(trifluoromethyl)phenoxy)ethyl) pyrrolidine-2-carboxamide]	−0.17	−4.00 mV	−1.10 mV	−25.30 mV
N[C@@H](c1ccc(F)cc1)c1nc2cc(C(F)(F)F)cc(C(F)(F)F)c2[nH]1 [Compound 58, (S)-(4,6-bis(trifluoromethyl)-1H-benzo[d]imidazol-2-yl)(4-fluorophenyl)methanamine]	−0.21	−4 mV	−4.9 mV	−8.6 mV
CC[C@H](C)[C@H](N)C(=O)NCCOc1cc(C(F)(F)F)cc(C(F)(F)F)c1 [Compound 7, (2S,3S)-2-amino-N-(2-(3,5-bis(trifluoromethyl)phenoxy)ethyl)-3-methylpentanamide]	−0.24	−8.10 mV	−6.60 mV	−21.40 mV
Cc1cccc(C)c1OCC(C)NC(=O)C(C)(C)N1CCNCC1=O (stereo not drawn) [Compound 37, N-(1-(2,6-dimethylphenoxy)propan-2-yl)-2-methyl-2-(2-oxopiperazin-1-yl)propanamide]	−0.09	−9.00 mV	−6.30 mV	−5.00 mV
C[C@@H](NC(=O)[C@@H]1CCCN1)c1ccc(OCC(F)(F)F)cn1 [Compound 82, (S)-N-((R)-1-(5-(2,2,2-trifluoroethoxy)pyridin-2-yl)ethyl)pyrrolidine-2-carboxamide]	−0.02	−5.6 mV	−8.7 mV	−2.5 mV
CC(=O)N1CCC(NC(=O)Nc2ccc(OC(F)(F)F)cc2)CC1 [Compound 50, 1-(1-acetylpiperidin-4-yl)-3-(4-(trifluoromethoxy)phenyl)urea]	0.02	−8.30 mV	−2.10 mV	−0.30 mV
O=C(NCCOc1cc(F)cc(C(F)(F)F)c1)[C@H]1CCCN1 [Compound 20, (R)-N-(2-(3-fluoro-5-(trifluoromethyl)phenoxy)ethyl) pyrrolidine-2-carboxamide]	−0.01	−6.80 mV	−4.40 mV	−7.20 mV
N[C@H](C(=O)NCCOc1cc(C(F)(F)F)cc(C(F)(F)F)c1)c1ccccc1 [Compound 9, (S)-2-amino-N-(2-(3,5-bis(trifluoromethyl)phenoxy)ethyl)-2-phenylacetamide]	−0.21	−8.10 mV	−7.90 mV	−18.30 mV
N[C@H](Cc1cccc(C(F)(F)F)c1)C(=O)NCc1nc2ccc(Br)cc2[nH]1 [Compound 74, (R)-2-amino-N-((6-bromo-1H-benzo[d]imidazol-2-yl)methyl)-3-(3-(trifluoromethyl)phenyl)propanamide]	−0.07	−3.7 mV	−8.8 mV	−7.4 mV
O=C1CNCCN1CCCc1nc2cc(F)cc(F)c2[nH]1 [Compound 68, 1-(3-(4,6-difluoro-1H-benzo[d]imidazol-2-yl)propyl)piperazin-2-one]	−0.1	−11.6 mV	−4.9 mV	−11.4 mV
Cc1cccc(C)c1OCC(C)NC(=O)CN (stereo not drawn) [Compound 17, 2-amino-N-(1-(2,6-dimethylphenoxy)propan-2-yl)acetamide]	−0.10	−5.80 mV	−5.90 mV	−12.40 mV
CC12CC3CC(C)(C1)CC(NC(=O)[C@H]1CCCN1)(C3)C2 [Compound 43, (2R)-N-(3,5-dimethyladamantan-1-yl)pyrrolidine-2-carboxamide]	−0.12	−11.40 mV	−5.70 mV	−8.50 mV
O=C(CCc1nc2cc(C(F)(F)F)cc(C(F)(F)F)c2[nH]1)N1CCNCC1 [Compound 61, 3-(4,6-bis(trifluoromethyl)-1H-benzo[d]imidazol-2-yl)-1-(piperazin-1-yl)propan-1-one]	−0.19	−11.3 mV	−5.1 mV	−9.2 mV
CN(Cc1nc2c(C(F)(F)F)cc(C(F)(F)F)cc2[nH]1)C(=O)CNC(C)(C)C [Compound 77, N-((4,6-bis(trifluoromethyl)-1H-benzo[d]imidazol-2-yl)methyl)-2-(tert-butylamino)-N-methylacetamide]	−0.06	−2.2 mV	−5 mV	−0.3 mV
Cc1cccc(C)c1OCC(C)NC(=O)[C@H](N)C(C)C (stereo partly drawn) [Compound 12, (2R)-2-amino-N-(1-(2,6-dimethylphenoxy)propan-2-yl)-3-methylbutanamide]	−0.19	−7.30 mV	−4.30 mV	−25.70 mV
N[C@H](Cc1cccc(C(F)(F)F)c1)C(=O)NCc1nc2ccc(-c3ccc(F)c(Cl)c3)cc2[nH]1 [Compound 71, (R)-2-amino-N-((6-(3-chloro-4-fluorophenyl)-1H-benzo[d]imidazol-2-yl)methyl)-3-(3-(trifluoromethyl)phenyl)propanamide]	−0.07	−10.5 mV	−6.3 mV	−8.5 mV
O=C1NC(=O)C(c2cc(C(F)(F)F)cc(C(F)(F)F)c2)N1 (stereo not drawn) [Compound 41, 5-(3,5-bis(trifluoromethyl)phenyl) imidazolidine-2,4-dione]	0.00	−9.00 mV	−5.30 mV	−2.80 mV
Cc1cccc(C)c1OCC(C)NC(=O)CC(=O)NC1CCNCC1 (stereo not drawn) [Compound 34, N1-(1-(2,6-dimethylphenoxy)propan-2-yl)-N3-(piperidin-4-yl)malonamide]	−0.03	−6.30 mV	−5.10 mV	−2.30 mV
CC(C)(CN1CCNCC1=O)c1nc2cc(F)cc(F)c2[nH]1 [Compound 70, 1-(2-(4,6-difluoro-1H-benzo[d]imidazol-2-yl)-2-methylpropyl)piperazin-2-one]	−0.08	−5.3 mV	−5.7 mV	−4.6 mV
FC(F)(F)c1cc(C(F)(F)F)c2nc([C@H]3CCCCN3)[nH]c2c1 [Compound 84, (R)-2-(piperidin-2-yl)-5,7-bis(trifluoromethyl)-1H-benzo[d]imidazole]	0.02	−6.7 mV	−2.4 mV	0 mV
O=C(NC12CC3CC(CC(C3)C1)C2)[C@@H]1CCCN1 [Compound 45, (S)-N-(adamantan-1-yl)pyrrolidine-2-carboxamide]	−0.07	−5.10 mV	−7.00 mV	−6.20 mV
